# Square brackets hold non-standard residues; d marks the D form. Ends that are not written are not given here. pY = N[C@@H](Cc1ccc(OP(=O)(O)O)cc1)C(=O)O
# What was measured:
# [1] = Bactericidal effect of phosphorylated vs non-phosphorylated 19-mer (FIG. 6); format: cell-based
# Source text: Synthetic 19-mer KDAMP peptides were synthesized with or without tyrosine phosphorylation. The bactericidal effect of the peptides was compared.
# [2] = test system: P. aeruginosa strain 6206; format: cell-based; conditions: Pseudomonas aeruginosa, 3 h, 200 μg/ml
# Experimental: (§1) Antimicrobial activity against Pseudomonas aeruginosa clinical and laboratory isolates, as well as ATCC strains of Escherichia coli, Enterococcus faecalis, Serratia marcescens, Staphylococcus epidermidis, Staphylococcus aureus, Streptococcus pyogenes and Candida albicans (˜10^6 cfu/ml each) were evaluated by viable counts at 3 h. Protection against bacterial invasion (quantified by gentamicin survival) and cytotoxicity (trypan blue staining) were assessed using fresh TiHCE cells inoculated with P. aeruginosa clinical isolates 6294 (invasive, ˜10^6 cfu for 2 h) or 6206 (cytotoxic, ˜10^4 cfu for 3 h). Peptide binding and membrane permeabilization by hKRT6A 19mer was determined by N-terminal TAMRA-tagged peptides (110 μM) and an impermeant SYTOX blue nucleic acid stain (5 μM; Invitrogen).
# (§2) For antimicrobial spectrum analysis, Escherichia coli (ATCC 25922), Enterococcus faecalis (ATCC 51188), Serratia marcescens (ATCC 43862), Staphylococcus epidermidis (ATCC 12228), Staphylococcus aureus (ATCC 29213), Streptococcus pyogenes (ATCC 19615) and Candida albicans (ATCC 90028) were used. […] Starting inoculum at a concentration of ˜10^8 cfu/ml was prepared fresh by suspending bacteria in KBM media (Lonza) until OD650 reading is ˜0.1. […]
# [3] = test system: P. aeruginosa clinical isolate 6294; format: cell-based; conditions: Pseudomonas aeruginosa, 3 h, 200 μg/ml
# Experimental: (§3) Crude lysates of media-treated and human tear fluid-treated cells were collected by freeze-thawing in KBM or saline (for assays) or 10 mM Tris-HCl (pH 8.5) (for mass spectrometry). Serial fractionation of lysates was performed using centrifugal filters with cutoffs at ˜100, ˜10 and ˜3 kDa (Millipore). […] Synthetic peptides of hKRT6A were obtained from Biomatik at a purity of >95%. Antimicrobial activity against Pseudomonas aeruginosa clinical and laboratory isolates, as well as ATCC strains of Escherichia coli, Enterococcus faecalis, Serratia marcescens, Staphylococcus epidermidis, Staphylococcus aureus, Streptococcus pyogenes and Candida albicans (˜10^6 cfu/ml each) were evaluated by viable counts at 3 h. […] Statistical analysis between two groups was performed using Student's t-Test.
# (§4) Pseudomonas aeruginosa corneal clinical isolates 6294 (invasive) and 6206 (cytotoxic), cystic fibrosis clinical isolate 2192, laboratory strains PAO1 (invasive), PA14 (cytotoxic), PAC1R and its series of isogenic LPS mutants (PAC1R algC-, 557, 605, 611) were used in this study. […] Starting inoculum at a concentration of ˜10^8 cfu/ml was prepared fresh by suspending bacteria in KBM media (Lonza) until OD650 reading is ˜0.1. […]
# laboratory strain PAO1 = assay: Antimicrobial activity assay (viable counts at 3 h); format: cell-based, Pseudomonas aeruginosa; conditions: after 3 h, 200 μg/ml in 0.9% NaCl
# Experimental: as §3, §4
# laboratory strain PA14 = assay: as above; format: cell-based, Pseudomonas aeruginosa; conditions: 200 μg/ml (FIG. 2D)
# Experimental: as §3, §4
# [4] = test system: P. aeruginosa clinical isolate 6206 cytotoxicity to TiHCE cells; assay: Cytotoxicity assay (trypan blue staining) in TiHCE cells; format: cell-based, Pseudomonas aeruginosa; conditions: 3 h
# Experimental: To assess protective activity of against bacterial invasion, high-calcium treated TiHCE cells were incubated with P. aeruginosa clinical isolate 6294 (40 μl/well; 10^6 cfu/ml in crude lysates/lysate fractions versus KBM control for 3 h or 10^8 cfu/ml in peptide-containing saline versus no-peptide saline control for 2 h), followed by gentamicin treatment (200 μg/ml for 1 h). Viable intracellular bacteria was collected with 0.25% Triton-X in PBS (100 μl/well) and quantified by plating on TSA. To assay protection against bacterial cytotoxicity, P. aeruginosa clinical isolate 6206 was used instead (40 μl/well; 10^6 cfu/ml for 3 h). Dead cells were quantified by Trypan-blue (0.04%) staining.
# [5] = test system: human corneal epithelial cells (TiHCE); assay: Effect of peptide treatment alone on epithelial cells; format: cell-based
# [6] = test system: cystic fibrosis isolate 2192; conditions: Pseudomonas aeruginosa, 3 h, 200 μg/ml
# Experimental: as §3, §4
# [7] = test system: Streptococcus pyogenes (ATCC 19615); format: cell-based; conditions: 200 μg/mL, 3 h
# Experimental: (§5) Telomerase-immortalized human corneal epithelial cells (TiHCE) were cultured as described (Robertson D M et al., 2005 Invest Ophthalmol Vis Sci. 46:470-478). Crude lysates of media-treated and human tear fluid-treated cells were collected by freeze-thawing in KBM or saline (for assays) or 10 mM Tris-HCl (pH 8.5) (for mass spectrometry). Serial fractionation of lysates was performed using centrifugal filters with cutoffs at ˜100, ˜10 and ˜3 kDa (Millipore). […] Synthetic peptides of hKRT6A were obtained from Biomatik at a purity of >95%. Antimicrobial activity against Pseudomonas aeruginosa clinical and laboratory isolates, as well as ATCC strains of Escherichia coli, Enterococcus faecalis, Serratia marcescens, Staphylococcus epidermidis, Staphylococcus aureus, Streptococcus pyogenes and Candida albicans (˜10^6 cfu/ml each) were evaluated by viable counts at 3 h. […] Statistical analysis between two groups was performed using Student's t-Test.
# as §2
# [8] = test system: Staphylococcus aureus (ATCC 29213); assay: Antimicrobial spectrum analysis; format: cell-based; conditions: 200 μg/mL, 3 h
# Experimental: as §5, §2
# [9] = test system: Staphylococcus epidermidis (ATCC 12228); assay: Antimicrobial spectrum analysis; format: cell-based; conditions: 200 μg/mL, 3 h
# Experimental: as §1, §2
# [10] = test system: Enterococcus faecalis (ATCC 51188); assay: Antimicrobial spectrum analysis; format: cell-based; conditions: 200 μg/mL, 3 h
# Experimental: as §1, §2
# [11] = test system: Escherichia coli (ATCC 25922); assay: Antimicrobial spectrum analysis; format: cell-based; conditions: 200 μg/mL, 3 h
# Experimental: as §1, §2
# [12] = test system: Candida albicans (ATCC 90028); assay: Antimicrobial spectrum analysis; format: cell-based; conditions: 200 μg/mL, 3 h
# Experimental: as §1, §2
# [13] = test system: Serratia marcescens (ATCC 43862); assay: Antimicrobial spectrum analysis; format: cell-based; conditions: 200 μg/mL, 3 h
# Experimental: as §3, §4
substance,measurement,setting,value
RAIGGGLSSVGGGSSTIK(phospho-Y) (RAIGGGLSSVGGGSSTIK[pY]) [phosphorylated 19-mer],bactericidal activity compared with the non-phosphorylated 19-mer,[1],significantly increased bactericidal activity
"RAIGGGLSSVGGGSSTIKY [19mer, RAIGGGLSSVGGGSSTIKY]",reduced viability,[2],99.7%
same,reduced viability,[3],97.5%
same,reduced viability,laboratory strain PAO1,96.1%
same,reduced viability,laboratory strain PA14,98.7%
same,protection against bacterial induced cytotoxicity compared to controls,[4],85.1%
same,"impact of peptide treatment alone on epithelial cells (morphology, trypan blue exclusion)",[5],not visibly impacted
same,reduced viability,[6],96.9%
"AIGGGLSSVGGGSSTIK [17mer, AIGGGLSSVGGGSSTIK]",susceptibility (in words),[7],not susceptible
same,activity (in words),[8],neither the 19- nor the 17mer peptide was active
same,activity (in words),[9],neither the 19- nor the 17mer peptide was active
same,activity (in words),[10],neither the 19- nor the 17mer peptide was active
same,activity (in words),[11],neither the 19- nor the 17mer peptide was active
same,activity (in words),[12],neither the 19- nor the 17mer peptide was active
same,activity (in words),[13],neither the 19- nor the 17mer peptide was active
